The test addresses T1, human GPR119 receptor (Homo sapiens, UniProt Q8TDV5, S329A/T327A).
T1 construct: N-terminal leader […]; expressed in transfected cells
T1 sequence (Q8TDV5 with tags, fused parts or gaps T327A/S329A): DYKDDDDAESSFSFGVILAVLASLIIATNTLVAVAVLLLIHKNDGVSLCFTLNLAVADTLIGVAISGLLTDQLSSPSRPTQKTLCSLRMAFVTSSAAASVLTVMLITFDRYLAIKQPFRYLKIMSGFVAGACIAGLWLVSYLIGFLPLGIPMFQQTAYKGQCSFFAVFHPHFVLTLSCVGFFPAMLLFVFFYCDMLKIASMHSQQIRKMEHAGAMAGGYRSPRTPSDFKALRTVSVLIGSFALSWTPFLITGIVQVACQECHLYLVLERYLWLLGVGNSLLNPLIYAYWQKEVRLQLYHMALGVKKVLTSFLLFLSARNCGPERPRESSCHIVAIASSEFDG
Put plainly: cAMP assay (LANCE cAMP-384) in HEK293 cells stably expressing mutant human GPR119 receptor. Format: cell-based. The following applies: for pEC50: read-out: EC50. How it is done:
Quantitative detection of cAMP accumulation from cells expressing human GPR119 receptor was achieved using Perkin Elmer's LANCE cAMP-384 Kit (Cat#AD0264) according to the manufacturer's protocol. Briefly, HEK293 cells stably expressing a mutant form of the human GPR119 receptor (Methionine 1 replaced with the amino acid sequence […] (SEQ ID NO: 1), and T327 & S329 changed to alanines) were grown to 50-70% confluency in cell culture media (DMEM, 10% heat inactivated Fetal Bovine Serum, 50 I.U./mL penicillin, 50 μg/mL streptomycin, 10 mM HEPES, 20 μg/mL G418 Sulfate). On the day of the assay, GPR119 stable HEK293 cells were lifted from the tissue culture plate and 1000 cells/well were incubated along with various concentrations of test compounds for 20 min at 37° C. Detection Buffer (50mM HEPES, 10mM calcium chloride, 0.35% Triton X-100, 1 mg/mL BSA) containing cAMP-specific antibody was then added to all wells and allowed to equilibrate in the dark for 10 minutes at room temperature. Upon equilibration, Detection Buffer containing europium-labeled cAMP tracer complex was added to all wells and allowed to react for 1 hour at room temperature. After 1 hour, bound europium-labeled cAMP tracer was measured using a Perkin Elmer ViewLux. The quantity of cAMP generated in each well was derived from a standard curve. EC50 was determined using nonlinear regression analysis of the cAMP values over a range of agonist concentration (12 points spanning the range from 30 μM to 100pM).
For some compounds for which no EC50 value could be determined, the efficacy is provided at a single concentration (10 μM) yielding % stimulation values.
A general note: Cyclic AMP is a second messenger, typically raised through Gs and lowered through Gi signalling.

Where [1] appears, read: cAMP accumulation, HEK293 cells stably expressing mutant human GPR119.
Where [2] appears, read: the 43rd table, compounds 75-1 to 75-38.

pEC50: −log10 of the molar value. Read-outs that look alike come from different tables or passages of the source. A value given as a limit tells only on which side of the number the result lay.

The term pEC50 denotes the negative decadic logarithm of the EC50, by convention in mol/L.

On to `CS(=O)(=O)c1ccc(N2CCC(=NOC3CCN(C(=O)N4CCCC4)CC3)CC2)c(F)c1` [Example 73-2], for which, for the setting “the 41st table, compounds 73-1, 73-2, unit inferred”, the pEC50 was 5.82. Consider `CC(C)N(CCOC(=O)N1CCC(ON=C2CCN(c3ccc(S(C)(=O)=O)cc3F)CC2)CC1)C(C)C` [Example 64-32], for which the pEC50 (the 33rd table) was < 5.00.

Turning to `CS(=O)(=O)c1ccc(N2CCC(=NOC3CCN(C(=O)OCCC4CCCCC4)CC3)CC2)c(F)c1` [Example 64-42], for the setting “the 33rd table”, the pEC50 is 6.46.

Consider `CCNC(=O)NCc1cc(F)c(N2CCC(=NOC3CCN(C(=O)OC(C)C)CC3)CC2)cc1F` [Example 16-1, 4-(1-{4-[(3-Ethyl-ureido)-methyl]-2,5-difluoro-phenyl}-piperidin-4-ylideneaminooxy)-piperidine-1-carboxylic acid isopropyl ester], for which the pEC50 under setting [1] is 6.77. Same read-out and setting: the value for `CC(C)OC(=O)N1CCC(ON=C2CCN(c3cc(F)c(-c4cccs4)cc3F)CC2)CC1` [Example 27-1, 4-[1-(2,5-Difluoro-4-thiophen-2-yl-phenyl)-piperidin-4-ylideneaminooxy]-piperidine-1-carboxylic acid isopropyl ester] was 6.70; that for `CC(C)OC(=O)N1CCC(ON=C2CCN(c3cc(F)c(-c4cnn(C)c4)cc3F)CC2)CC1` [Example 27-34] was 6.90.

For the molecule `CC(C)[C@@H](N)COC(=O)N1CCC(ON=C2CCN(c3ccc(S(C)(=O)=O)cc3F)CC2)CC1` [Example 64-44], the pEC50 (the 33rd table) was < 5.00. In the case of `Cc1cc(C(F)(F)F)cc(N2CCC(ON=C3CCN(c4ccc(S(C)(=O)=O)cc4F)CC3)CC2)n1` [Example 63-13], the pEC50 (the 32nd table) was 5.83.

For `CC(C)OC(=O)N1CCC(ON=C2CCN(c3cc(F)c(CC(=O)N4CCC[C@@H](N)C4)cc3F)CC2)CC1` [Example 75-14], the pEC50 under setting [2] is 7.29. `CC(C)OC(=O)N1CCC(ON=C2CCN(c3cc(F)c(CN4CCOC4=O)cc3F)CC2)CC1` [Example 15-1, 4-{1-[2,5-DIFLUORO-4-(2-OXO-OXAZOLIDIN-3-YLMETHYL)-PHENYL]-PIPERIDIN-4-YLIDENEAMINOOXY}-PIPERIDINE-1-CARBOXYLIC ACID ISOPROPYL ESTER]: the pEC50 under setting [1] was 6.85. Regarding `CC(C)OC(=O)N1CCC(ON=C2CCN(c3cc(F)c(CNCCC(=O)O)cc3F)CC2)CC1` [Example 7-1, 4-(1-{4-[(2-Carboxy-ethylamino)-methyl]-2,5-difluoro-phenyl}-piperidin-4-ylideneaminooxy)-piperidine-1-carboxylic acid isopropyl ester], the pEC50 under setting [1] was 5.94.

`CCCCOC(=O)N1CCC(ON=C2CCN(c3ccc(S(C)(=O)=O)cc3F)CC2)CC1` [Example 64-45]: the pEC50 (the 33rd table) was 7.27. On to `CS(=O)(=O)c1ccc(N2CCC(=NOC3CCN(Cc4ccc5c(c4)OCO5)CC3)CC2)c(F)c1` [Example 66-37], for which the activation at 10 µM (HEK293, 20 min, at 10 μM, printed in EC50 column of the 36th table, read-out: stimulation in % at 10 μM) is 87%. As for `Cn1cc(CN2CCC(ON=C3CCN(c4ccc(S(C)(=O)=O)cc4F)CC3)CC2)cn1` [Example 66-10], the pEC50 (the 36th table, compounds 66-1 to 66-51) was < 5.00. Take `CCc1ccc([C@H](C)N2CCC(ON=C3CCN(c4cc(F)c(S(C)(=O)=O)cc4F)CC3)CC2)cc1` [Example 66-63]: the pEC50 (the 37th table, compounds 66-52 to 66-64) is 6.53. Take `CS(=O)(=O)c1ccc(N2CCC(=NOC3CCN(c4ncc(Br)cc4F)CC3)CC2)c(F)c1` [Example 63-25]: the negative-log EC50 (pEC50) (the 32nd table) is 6.71.

`CS(=O)(=O)c1ccc(N2CCC(=NOC3CCN(S(=O)(=O)c4ccccc4)CC3)CC2)c(F)c1` [Example 65-18]: the pEC50 (the 34th table, compounds 65-1 to 65-24) is 5.96.

In the case of `CC(C)(C)CCOC(=O)N1CCC(ON=C2CCN(c3ccc(S(C)(=O)=O)cc3F)CC2)CC1` [Example 64-41], the pEC50 (the 33rd table) was 6.69. Turning to `CC(C)OC(=O)N1CCC(ON=C2CCN(c3ncc(N4CCCC4=O)cc3F)CC2)CC1` [Example 51-3], the negative-log EC50 (pEC50) (the 28th table) is 6.40. As to `CC(C)OC(=O)N1CCC(ON=C2CCN(c3cc(F)c(CC(=O)N4CCC(CN(C)C)CC4)cc3F)CC2)CC1` [Example 75-38], under setting [2], the pEC50 is 7.04. For the molecule `CC(C)OC(=O)N1CCC(ON=C2CCN(c3cc(F)c(Cn4cnc5ccncc54)cc3F)CC2)CC1` [Example 14-8], under setting [1], the pEC50 was 6.12. On the same count and under the same terms, the value for `CC(C)OC(=O)N1CCC(ON=C2CCN(c3cc(F)ccc3F)CC2)CC1` [Example 32-2] was 5.54.

(Values after patent US8293729B2 (Boehringer Ingelheim International GmbH, priority 2009, dated 2012).)
